Experiments:
[1] = Metabolic stability in human liver microsomes; assay type: in vitro ADME; conditions: for t1/2 increase over t1/2 of PTZ / in vitro t1/2 compared to the t1/2 of PTZ: human liver microsomes; for in vitro t1/2 compared to the t1/2 of PTZ: under the assay conditions tested; for half-life at 1 μM / microsomal CLint at 1 μM: pH 7.4, 1 mg/mL human liver microsomes, 1 μM test compound, NADPH regenerating system, 37° C., 0-45 min
Procedure: Human liver microsomes (Lot# FJM) were obtained from Celsis (Baltimore, Md.). Components of the NADPH regenerating system solution A (Lot#29850) and B (Lot#28594) were obtained from BD Gentest (Woburn, Mass.). […] All solvents and buffers were obtained from commercial sources and used without further purification.
NADPH regenerating system (1.3 mM NADP^+, 3.3 mM glucose-6-phosphate, 0.4 U/mL glucose-6-phosphate dehydrogenase, and 3.3 mM magnesium chloride) were prepared by mixing 5 volume of solution A and 1 volume of solution B and pre-warmed at 37° C. in a shaking water bath. Reactions were initiated by adding NADPH regenerating system to the incubation mixtures. After 0, 5, 10, 15, 30 and 45 min of incubation, 0.1 mL reaction mixtures were removed from the incubation plate and mixed with 0.15 mL of ice-cold acetonitrile in an appropriate well of a 96-well crash plate. The 96-well crash plate was placed on ice for 15 min, and samples were centrifuged (2,500 g, 10 min, 4° C.) to precipitate protein. The supernatants were diluted 1:1 (v/v) with water containing 0.015 μM verapamil (internal standard) in 96-well shallow injection plate, which was sealed and submitted for LC/MS or LC/MS/MS analysis utilitzing a API 150 single quadrupole mas spectrometer.
The residual compound remaining (% R) was determined from LC/MS peak areas by comparison to a zero time point. Metabolic half-life (t1/2) and intrinsic clearance (CLint) values were calculated from the slope of ln(%) plotted vs. time.

[2] = cited from earlier work
[3] = orally administered, humans; cited from earlier work

| Compound | t1/2 increase over t1/2 of PTZ [1] | in vitro t1/2 compared to the t1/2 of PTZ [1] | half-life at 1 μM [1] | microsomal CLint at 1 μM [1] | time of peak concentration in blood ([2]; after intravenous (IV) or intraperitoneal (IP) delivery) | plasma half-life ([2]; in vivo) | kindling dose [3] |
| --- | --- | --- | --- | --- | --- | --- | --- |
| [2H]C1([2H])c2nnnn2C([2H])([2H])C([2H])([2H])C([2H])([2H])C1([2H])[2H] [Compound 1, d10-6,7,8,9-Tetrahydro-5H-tetrazolo[1,5-a]azepine] | 45.1% | increased | 12.6 h | 0.9 µL/min/mg |  |  |  |
| [2H]C1([2H])CCCC([2H])([2H])n2nnnc21 [Compound 2, 6,6,10,10-d4-6,7,8,9-Tetrahydro-5H-tetrazolo[1,5-a]azepine] | 6.3% | increased | 9.23 h | 1.3 µL/min/mg |  |  |  |
| [2H]C1([2H])Cc2nnnn2CC([2H])([2H])C1([2H])[2H] [Compound 3] | −2.9% |  | 8.43 h | 1.4 µL/min/mg |  |  |  |
| [2H]C1([2H])CC([2H])([2H])c2nnnn2C([2H])([2H])C1 [Compound 4, 6,6,8,8,10,10-d6-6,7,8,9-tetrahydro-5H-tetrazolo[1,5-a]-azepine] | 8.8% | increased | 9.45 h | 1.2 µL/min/mg |  |  |  |
| C1CCc2nnnn2CC1 [PTZ, pentylenetetrazole] |  |  | 8.68 h | 1.3 µL/min/mg | ≤ 10 min | about 60 minutes | approximately 20 mg/kg |
| C[C@]12CC[C@H]3[C@@H](CCC4=CC(=O)CC[C@@]43C)[C@@H]1CC[C@@H]2O [testosterone, reference compound] |  |  |  | 76 µL/min/mg |  |  |  |

Reference: patent US9951076B2, “Deuterated pentylenetetrazoles for improving cognitive function” (Balance Therapeutics, Inc., priority 2011, dated 2018)
